Structures can show the parent of a compound that is named as a salt.
Target: IRAK4 (Homo sapiens (Human), UniProt Q9NWZ3)
Assay: IRAK4 Kinase Assay (IMAP fluorescence polarization)
Format: biochemical
Conditions: 0.5 nM GST tagged IRAK4, 100 μM ATP, 30 minutes at 25° C., IMAP FP
Method in brief: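 GST-tagged IRAK4 (0.5 nM) phosphorylated 100 nM fluorescent peptide RP7030 with 100 μM ATP in 10 mM Tris-HCl pH 7.2, MgCl2, DTT and Tween 20 for 30 min at 25 °C. Phosphorylation was read as the increase in fluorescence polarization after binding to IMAP nanoparticles.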

Chain of IRAK4 (Q9NWZ3 whole entry): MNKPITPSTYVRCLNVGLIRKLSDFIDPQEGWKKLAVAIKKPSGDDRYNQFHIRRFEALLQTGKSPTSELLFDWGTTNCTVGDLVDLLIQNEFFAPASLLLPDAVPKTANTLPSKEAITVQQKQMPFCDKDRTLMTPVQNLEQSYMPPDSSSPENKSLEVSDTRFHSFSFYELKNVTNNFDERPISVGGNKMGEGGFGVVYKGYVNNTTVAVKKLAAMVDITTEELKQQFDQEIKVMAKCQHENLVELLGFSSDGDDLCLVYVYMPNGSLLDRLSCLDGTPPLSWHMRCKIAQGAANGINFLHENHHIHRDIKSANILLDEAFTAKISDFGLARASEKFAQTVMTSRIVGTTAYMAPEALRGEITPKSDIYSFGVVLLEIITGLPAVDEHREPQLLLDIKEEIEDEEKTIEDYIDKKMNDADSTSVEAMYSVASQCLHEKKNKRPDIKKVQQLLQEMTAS

Row | SMILES | IC50
1 | Cn1cc(NC(=O)c2ccc3ccc(N4C[C@@H]5CNC[C@H]4C5)nn23)c(C(F)(F)F)n1 [Example 122, 2-[(1S,5R)-(1R,5S)-3,6-diazabicyclo[3.2.1]oct-6-yl]-N-[1-methyl-3-(trifluoromethyl)-1H-pyrazol-4-yl]pyrrolo[1,2-b]pyridazine-7-carboxamide] | 39 nM
2 | N[C@@H]1[C@H](Nc2ccc3ccc(C(=O)Nc4cscc4Br)n3n2)CCCC1(F)F [Example 88, 2-{[(1R,2R)-2-amino-3,3-difluoro-cyclohexyl]amino}-N-(4-bromothiophen-3-yl)pyrrolo[1,2-b]pyridazine-7-carboxamide trifluoroacetate] | 6160 nM
3 | Cn1cc(NC(=O)c2ccc3ccc(N4CCCNCC4)nn23)c(C(F)(F)F)n1 [Example 10, 2-(1,4-diazepan-1-yl)-N-[1-methyl-3-(trifluoromethyl)-1H-pyrazol-4-yl]pyrrolo[1,2-b]pyridazine-7-carboxamide trifluoroacetate] | 33 nM
4 | Cn1cc(NC(=O)c2ccc3ccc(N4C[C@H]5CC[C@@H]4CN5)nn23)c(C#N)n1 (single isomer, unassigned) [Example 44, N-(3-cyano-1-methyl-1H-pyrazol-4-yl)-2-[(1S,4S)- or (1R,4R)-2,5-diazabicyclo[2.2.2]oct-2-yl]pyrrolo[1,2-b]pyridazine-7-carboxamide trifluoroacetate] | 50 nM
5 | O=C(Nc1cscc1Br)c1ccc2ccc(N3CCCNCC3)nn12 [Example 60, N-(4-bromothiophen-3-yl)-2-(1,4-diazepan-1-yl)pyrrolo[1,2-b]pyridazine-7-carboxamide trifluoroacetate] | 548 nM
6 | Cn1cc(NC(=O)c2ccc3ccc(N4C[C@H]5CN[C@H](C5)C4)nn23)c(C(F)(F)F)n1 (single isomer, unassigned) [Example 4, 2-[(1S,5S)- or (1R,5R)-3,6-diazabicyclo[3.2.1]oct-3-yl]-N-[1-methyl-3-(trifluoromethyl)-1H-pyrazol-4-yl]pyrrolo[1,2-b]pyridazine-7-carboxamide] | 131 nM
7 | N#Cc1cscc1NC(=O)c1ccc2ccc(N[C@@H]3CCCC(F)(F)[C@@H]3N)nn12 [Example 89, 2-{[(1R,2R)-2-amino-3,3-difluoro-cyclohexyl]amino}-N-(4-cyanothiophen-3-yl)pyrrolo[1,2-b]pyridazine-7-carboxamide trifluoroacetate] | 342 nM
8 | N[C@@H]1[C@H](Nc2ccc3ccc(C(=O)Nc4ccsc4Br)n3n2)CCCC1(F)F [Example 86, 2-{[(1R,2R)-2-amino-3,3-difluoro-cyclohexyl]amino}-N-(2-bromothiophen-3-yl)pyrrolo[1,2-b]pyridazine-7-carboxamide trifluoroacetate] | 5240 nM
9 | Cn1cc(NC(=O)c2ccc3ccc(N4CCCNCC4)nn23)c(C#N)n1 [Example 30, N-(3-cyano-1-methyl-1H-pyrazol-4-yl)-2-(1,4-diazepan-1-yl)pyrrolo[1,2-b]pyridazine-7-carboxamide trifluoroacetate] | 27 nM
10 | N[C@@H]1[C@H](Nc2ccc3ccc(C(=O)Nc4ccsc4Cl)n3n2)CCCC1(F)F [Example 90, 2-{[(1R,2R)-2-amino-3,3-difluoro-cyclohexyl]amino}-N-(2-chlorothiophen-3-yl)pyrrolo[1,2-b]pyridazine-7-carboxamide trifluoroacetate] | 1920 nM
11 | Cn1cc(NC(=O)c2ccc3ccc(N[C@@H]4CCCC(F)(F)[C@@H]4N)nn23)c(C(F)(F)F)n1 [Example 7, 2-{[(1R,2R)-2-amino-3,3-difluorocyclo-hexyl]amino}-N-[1-methyl-3-(trifluoromethyl)-1H-pyrazol-4-yl]pyrrolo[1,2-b]pyridazine-7-carboxamide trifluoroacetate] | 189 nM
12 | N#Cc1sccc1NC(=O)c1ccc2ccc(N3CCCNCC3)nn12 [Example 67, N-(2-cyanothiophen-3-yl)-2-(1,4-diazepan-1-yl)pyrrolo[1,2-b]pyridazine-7-carboxamide trifluoroacetate] | 197 nM
13 | N#Cc1sccc1NC(=O)c1ccc2ccc(N[C@@H]3CCCC[C@@H]3O)nn12 [Example 97, N-(2-cyanothiophen-3-yl)-2-{[(1R,2S)-2-hydroxycyclohexyl]amino}pyrrolo[1,2-b]pyridazine-7-carboxamide trifluoroacetate] | 1370 nM
14 | O=C(Nc1ccccc1Br)c1ccc2ccc(N3CC4CCC3CN4)nn12 (centres unmarked) [Example 61, N-(2-bromophenyl)-2-(2,5-diazabicyclo[2.2.2]oct-2-yl)pyrrolo[1,2-b]pyridazine-7-carboxamide trifluoroacetate] | 1660 nM
15 | Cn1cc(NC(=O)c2ccc3ccc(N4C[C@@H]5CC[C@H]4CN5)nn23)c(Br)n1 (single isomer, unassigned) [Example 35, N-(3-bromo-1-methyl-1H-pyrazol-4-yl)-2-[(1S,4S)- or (1R,4R)-2,5-diazabicyclo[2.2.2]oct-2-yl]pyrrolo[1,2-b]pyridazine-7-carboxamide trifluoroacetate] | 34 nM

These reach a lower IC50. Values come first.

Row | IC50 | SMILES
16 | 3 nM | N#Cc1cscc1NC(=O)c1ccc2ccc(N[C@@H]3CCCC[C@@H]3N)nn12 [Example 73, 2-{[(1R,2S)-2-aminocyclohexyl]amino}-N-(4-cyanothiophen-3-yl)pyrrolo[1,2-b]pyridazine-7-carboxamide trifluoroacetate]
17 | 1 nM | Cn1cc(NC(=O)c2ccc3ccc(N[C@@H]4CCCC[C@@H]4N)nn23)c(Cl)n1 [Example 25, 2-{[(1R,2S)-2-aminocyclohexyl]amino}-N-(3-chloro-1-methyl-1H-pyrazol-4-yl)pyrrolo[1,2-b]pyridazine-7-carboxamide trifluoroacetate]
18 | 4 nM | Cn1cc(NC(=O)c2ccc3ccc(N4CC5CCC4CN5)nn23)c(C(F)F)n1 (centres unmarked) [Example 17, 2-(2,5-diazabicyclo[2.2.2]oct-2-yl)-N-[3-(difluoromethyl)-1-methyl-1H-pyrazol-4-yl]pyrrolo[1,2-b]pyridazine-7-carboxamide trifluoroacetate]
19 | 0.2 nM | Cn1cc(NC(=O)c2ccc3ccc(N[C@@H]4CCCCNC4)nn23)c(C(F)F)n1 (single isomer, unassigned) [Example 41, 2-[(3R)- or (3S)-azepan-3-ylamino]-N-[3-(difluoromethyl)-1-methyl-1H-pyrazol-4-yl]pyrrolo[1,2-b]pyridazine-7-carboxamide trifluoroacetate]
20 | 20 nM | Cn1cc(NC(=O)c2ccc3ccc(N4CCCNCC4)nn23)c(Cl)n1 [Example 23, N-(3-chloro-1-methyl-1H-pyrazol-4-yl)-2-(1,4-diazepan-1-yl)pyrrolo[1,2-b]pyridazine-7-carboxamide trifluoroacetate]
21 | 1 nM | Cn1cc(NC(=O)c2ccc3ccc(N[C@@H]4CCCNC4)nn23)c(C(F)(F)F)n1 [Example 6, N-[1-methyl-3-(trifluoromethyl)-1H-pyrazol-4-yl]-2-[(3R)-piperidin-3-ylamino]pyrrolo[1,2-b]pyridazine-7-carboxamide trifluoroacetate]
22 | 19 nM | Cn1cc(NC(=O)c2ccc3ccc(N4CC5CCC4CN5)nn23)c(C(F)(F)F)n1 (centres unmarked) [Example 8, 2-(2,5-diazabicyclo[2.2.2]oct-2-yl)-N-[1-methyl-3-(trifluoromethyl)-1H-pyrazol-4-yl]pyrrolo[1,2-b]pyridazine-7-carboxamide]
23 | 26 nM | N#Cc1ccccc1NC(=O)c1ccc2ccc(N3CCC[C@@H](N)C3)nn12 [Example 107, 2-[(3R)-3-aminopiperidin-1-yl]-N-(2-cyanophenyl) pyrrolo[1,2-b]pyridazine-7-carboxamide trifluoroacetate]
